# Results as given in PMC7473324, “Histo-blood group antigens as divergent factors of groups A and C rotaviruses circulating in humans and different animal species” (Emerging Microbes & Infections, 2020).
# Biological target: T1, GST-VP8* of P[16] murine RVA EMcN (Murine rotavirus EMcN, UniProt Q6WVQ1)
# T1 construct: gene VP4; VP8* core aa 46-231, cut from VP4 precursor; N-terminal GST fusion kept; E. coli BL21
# Test: CFG glycan array, GST-VP8* detected with fluorescent anti-GST antibody (RFU)
# Type: binding
# Conditions: immobilised glycan
smiles,measurement,value
"OC[C@H]1O[C@H](O[C@H]2[C@@H](O)[C@@H](CO)O[C@@H](O[C@H]3[C@H](O)[C@@H](O)C(O)O[C@@H]3CO)[C@@H]2O)[C@H](O)[C@@H](O)[C@H]1O (stereo partly shown) [compound 117, Galα1-3Galβ1-4Glc]","CFG glycan array, GST-VP8* detected with fluorescent anti-GST antibody (RFU)",Four strains exhibited strongest binding signals to the αGal containing glycans
